Source: patent publication US5310727A, “Pharmaceutical compositions for parenteral use containing a calcitonin as the active ingredient” (Scalvo S.p.A., priority 1986, dated 1994)
Where a SMILES comes first, the peptide text is derived from it. Bridges are numbered along the chain shown (N, C = ends).

Experiment: Solubility of the ingredient in water (description)
Format: physicochemical
Details: white fluffy powder

CC(C)C[C@H](NC(=O)[C@H](CCCCN)NC(=O)CNC(=O)[C@H](CC(C)C)NC(=O)[C@@H](NC(=O)[C@@H]1CSSC[C@H](N)C(=O)N[C@@H](CO)C(=O)N[C@@H](CC(N)=O)C(=O)N[C@@H](CC(C)C)C(=O)N[C@@H](CO)C(=O)N[C@@H]([C@@H](C)O)C(=O)N1)C(C)C)C(=O)N[C@@H](CO)C(=O)N[C@@H](CCC(N)=O)C(=O)N[C@@H](CCC(=O)O)C(=O)N[C@@H](CC(C)C)C(=O)N[C@@H](Cc1c[nH]cn1)C(=O)N[C@@H](CCCCN)C(=O)N[C@@H](CC(C)C)C(=O)N[C@@H](CCC(N)=O)C(=O)N[C@H](C(=O)N[C@@H](Cc1ccc(O)cc1)C(=O)N1CCC[C@H]1C(=O)N[C@@H](CCCNC(=N)N)C(=O)N[C@H](C(=O)N[C@@H](CC(=O)O)C(=O)N[C@H](C(=O)NCC(=O)N[C@@H](C)C(=O)NCC(=O)N[C@H](C(=O)N1CCC[C@H]1C(N)=O)[C@@H](C)O)C(C)C)[C@@H](C)O)[C@@H](C)O [eel calcitonin, eel calcitonin (synthetic)] (H-CSNLSTCVLGKLSQELHKLQTYPRTDVGAGTP-NH2; disulfide 1-7)
Solubility in water: easily soluble in water
